# How the values were obtained:
# Taselisib/GDC0032 = compound: Cc1nc(-c2cn3c(n2)-c2ccc(-c4cnn(C(C)(C)C(N)=O)c4)cc2OCC3)n(C(C)C)n1 [Taselisib/GDC0032]
# [1] = compound: CO[C@@H](C)Cn1c(=O)n(C)c2cnc3ccc(-c4cncc(C(C)(C)O)c4)cc3c21
# Flavopiridol [2] = compound: T1, CN1CC[C@H](c2c(O)cc(O)c3c(=O)cc(-c4ccccc4Cl)oc23)[C@H](O)C1 [Flavopiridol]
# Saracatinib/AZD0530 = compound: CN1CCN(CCOc2cc(OC3CCOCC3)c3c(Nc4c(Cl)ccc5c4OCO5)ncnc3c2)CC1 [Saracatinib/AZD0530]
# ABT-737 = compound: CN(C)CC[C@H](CSc1ccccc1)Nc1ccc(S(=O)(=O)NC(=O)c2ccc(N3CCN(Cc4ccccc4-c4ccc(Cl)cc4)CC3)cc2)cc1[N+](=O)[O-] [ABT-737]
# BSJ-03-123 = compound: CC(=O)c1c(C)c2cnc(Nc3ccc(N4CCN(CCOCCOCCOCCNC(=O)COc5cccc6c5C(=O)N(C5CCC(=O)NC5=O)C6=O)CC4)cn3)nc2n(C2CCCC2)c1=O [BSJ-03-123]; assay: GR value, 72 h; higher = faster growth (1 = untreated, <0 = killing);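 note: breast cancer and non-malignant breast epithelial lines, nine half-log doses, viable cells counted by Hoechst and LIVE/DEAD dye imaging versus time-zero plates and DMSO controls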
# Flavopiridol [3] = compound: T1, Flavopiridol; assay: as above
# THZ1 = compound: CN(C)C/C=C/C(=O)Nc1ccc(C(=O)Nc2cccc(Nc3ncc(Cl)c(-c4c[nH]c5ccccc45)n3)c2)cc1 [THZ1]; assay: as above
# LEE011/Ribociclib = compound: CN(C)C(=O)c1cc2cnc(Nc3ccc(N4CCNCC4)cn3)nc2n1C1CCCC1 [LEE011/Ribociclib]; assay: as above
# THZ531 = compound: CN(C)C/C=C/C(=O)Nc1ccc(C(=O)N2CCC[C@@H](Nc3ncc(Cl)c(-c4c[nH]c5ccccc45)n3)C2)cc1 [THZ531]; assay: as above
# YKL-5-124 = compound: C=CC(=O)Nc1ccc(C(=O)Nc2[nH]nc3c2CN(C(=O)N[C@H](CN(C)C)c2ccccc2)C3(C)C)cc1 [YKL-5-124]; assay: as above
# [4] = compound: CCN1CCN(Cc2ccc(Nc3ncc(F)c(-c4cc(F)c5nc(C)n(C(C)C)c5c4)n3)nc2)CC1; assay: as above
# [5] = compound: CCc1cnn2c(NCc3ccc[n+]([O-])c3)cc(N3CCCC[C@H]3CCO)nc12; assay: as above
# [6] = compound: CC(=O)c1c(C)c2cnc(Nc3ccc(N4CCNCC4)cn3)nc2n(C2CCCC2)c1=O; assay: as above
# Neratinib/HKI272 = compound: CCOc1cc2ncc(C#N)c(Nc3ccc(OCc4ccccn4)c(Cl)c3)c2cc1NC(=O)/C=C/CN(C)C [Neratinib/HKI272]; assay: as above
# 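Throughout, for GR50, 72 h: breast cancer and non-malignant breast epithelial cell lines, Deep Dye Drop or Dye Drop imaging, nine half-log doses, GR normalized to time-zero plates and DMSO-only controls.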
cell line,measurement,setting,value
PDX1328,"GR50, 72 h",Taselisib/GDC0032,0.0544 µM
same,"GR50, 72 h",[1],0.00195 µM
same,"GR50, 72 h",Flavopiridol [2],0.181 µM
same,"GR50, 72 h",Saracatinib/AZD0530,0.987 µM
same,"GR50, 72 h",ABT-737,1.56 µM
same,GR value,BSJ-03-123; 0.001 µM,0.951 GR
same,GR value,BSJ-03-123; 0.003162 µM,0.816 GR
same,GR value,BSJ-03-123; 0.01 µM,0.819 GR
same,GR value,BSJ-03-123; 0.03162 µM,0.792 GR
same,GR value,BSJ-03-123; 0.1 µM,0.852 GR
same,GR value,BSJ-03-123; 0.3162 µM,0.646 GR
same,GR value,BSJ-03-123; 1 µM,0.479 GR
same,GR value,BSJ-03-123; 3.162 µM,0.531 GR
same,GR value,BSJ-03-123; 10 µM,0.0901 GR
same,GR value,Flavopiridol [3]; 0.0001 µM,1.06 GR
same,GR value,Flavopiridol [3]; 0.0003162 µM,1.06 GR
same,GR value,Flavopiridol [3]; 0.001 µM,0.963 GR
same,GR value,Flavopiridol [3]; 0.003162 µM,0.955 GR
same,GR value,Flavopiridol [3]; 0.01 µM,1.01 GR
same,GR value,Flavopiridol [3]; 0.03162 µM,1.08 GR
same,GR value,Flavopiridol [3]; 0.1 µM,0.909 GR
same,GR value,Flavopiridol [3]; 0.3162 µM,0.239 GR
same,GR value,Flavopiridol [3]; 1 µM,-0.603 GR
same,GR value,THZ1; 0.0001 µM,0.984 GR
same,GR value,THZ1; 0.0003162 µM,1.06 GR
same,GR value,THZ1; 0.001 µM,1.11 GR
same,GR value,THZ1; 0.003162 µM,0.868 GR
same,GR value,THZ1; 0.01 µM,0.532 GR
same,GR value,THZ1; 0.03162 µM,-0.0495 GR
same,GR value,THZ1; 0.1 µM,-0.397 GR
same,GR value,THZ1; 0.3162 µM,-0.435 GR
same,GR value,THZ1; 1 µM,-0.711 GR
same,GR value,LEE011/Ribociclib; 0.001 µM,0.927 GR
same,GR value,LEE011/Ribociclib; 0.003162 µM,0.816 GR
same,GR value,LEE011/Ribociclib; 0.01 µM,0.661 GR
same,GR value,LEE011/Ribociclib; 0.03162 µM,0.649 GR
same,GR value,LEE011/Ribociclib; 0.1 µM,0.481 GR
same,GR value,LEE011/Ribociclib; 0.3162 µM,0.514 GR
same,GR value,LEE011/Ribociclib; 1 µM,0.528 GR
same,GR value,LEE011/Ribociclib; 3.162 µM,0.394 GR
same,GR value,LEE011/Ribociclib; 10 µM,0.425 GR
same,GR value,THZ531; 0.0001 µM,0.957 GR
same,GR value,THZ531; 0.0003162 µM,0.973 GR
same,GR value,THZ531; 0.001 µM,0.939 GR
same,GR value,THZ531; 0.003162 µM,1.11 GR
same,GR value,THZ531; 0.01 µM,0.84 GR
same,GR value,THZ531; 0.03162 µM,0.788 GR
same,GR value,THZ531; 0.1 µM,0.153 GR
same,GR value,THZ531; 0.3162 µM,-0.45 GR
same,GR value,THZ531; 1 µM,-0.532 GR
same,GR value,YKL-5-124; 0.001 µM,0.525 GR
same,GR value,YKL-5-124; 0.003162 µM,0.572 GR
same,GR value,YKL-5-124; 0.01 µM,0.406 GR
same,GR value,YKL-5-124; 0.03162 µM,0.424 GR
same,GR value,YKL-5-124; 0.1 µM,0.45 GR
same,GR value,YKL-5-124; 0.3162 µM,0.301 GR
same,GR value,YKL-5-124; 1 µM,0.351 GR
same,GR value,YKL-5-124; 3.162 µM,0.295 GR
same,GR value,YKL-5-124; 10 µM,-0.0349 GR
same,GR value,[4]; 0.001 µM,0.866 GR
same,GR value,[4]; 0.003162 µM,0.775 GR
same,GR value,[4]; 0.01 µM,0.537 GR
same,GR value,[4]; 0.03162 µM,0.323 GR
same,GR value,[4]; 0.1 µM,0.266 GR
same,GR value,[4]; 0.3162 µM,0.301 GR
same,GR value,[4]; 1 µM,0.263 GR
same,GR value,[4]; 3.162 µM,0.176 GR
same,GR value,[4]; 10 µM,-0.621 GR
same,GR value,[5]; 0.0001 µM,1.05 GR
same,GR value,[5]; 0.0003162 µM,1.11 GR
same,GR value,[5]; 0.001 µM,1.06 GR
same,GR value,[5]; 0.003162 µM,1.05 GR
same,GR value,[5]; 0.01 µM,0.907 GR
same,GR value,[5]; 0.03162 µM,-0.453 GR
same,GR value,[5]; 0.1 µM,-0.581 GR
same,GR value,[5]; 0.3162 µM,-0.571 GR
same,GR value,[5]; 1 µM,-0.53 GR
same,GR value,[6]; 0.0003162 µM,1.04 GR
same,GR value,[6]; 0.001 µM,1.1 GR
same,GR value,[6]; 0.003162 µM,1.06 GR
same,GR value,[6]; 0.01 µM,0.938 GR
same,GR value,[6]; 0.03162 µM,0.751 GR
same,GR value,[6]; 0.1 µM,0.557 GR
same,GR value,[6]; 0.3162 µM,0.518 GR
same,GR value,[6]; 1 µM,0.414 GR
same,GR value,[6]; 3.162 µM,0.399 GR
same,GR value,Neratinib/HKI272; 0.0003162 µM,1.02 GR
same,GR value,Neratinib/HKI272; 0.001 µM,1.02 GR
same,GR value,Neratinib/HKI272; 0.003162 µM,1.01 GR
same,GR value,Neratinib/HKI272; 0.01 µM,0.898 GR
same,GR value,Neratinib/HKI272; 0.03162 µM,0.762 GR
same,GR value,Neratinib/HKI272; 0.1 µM,0.675 GR
same,GR value,Neratinib/HKI272; 0.3162 µM,0.537 GR
same,GR value,Neratinib/HKI272; 1 µM,0.223 GR
same,GR value,Neratinib/HKI272; 3.162 µM,0.0191 GR

# Source: the supplement of paper PMC9663587
